Reference: patent US6103875A, “Antifungal compounds from pseudomonas viridiflava” (Pharmagenesis, Inc., priority 1997, dated 2000)
Values after ≈ are worked out from the molar mass of the structure shown.

Legend:
[1] = tested on: Candida parasilopsis 90018; experiment: Minimal inhibitory concentration test (modified NCCLS protocol); assay type: cell-based, Candida parasilopsis (ATCC 90018)
Procedure: (§1) All fungi used for test purposes for sensitivity to the ecomycins were obtained from the ATCC or from the mycological collection at Montana State University, Bozeman, Mont.
(§2) Samples of the semi-purified ecomycin preparation, purified Ecomycin A, and Ecomycin B were tested, along with a known antifungal compound, Amphotericin B, in a minimal inhibitory concentration test (MIC) modification of the NCCLS protocol (Galgiani, et al., 1995).

Candida albicans 90028 = experiment: as above; assay type: cell-based, Candida albicans (ATCC 90028)
Procedure: as §1, §2

Candida glabrata 90030 = experiment: as above; assay type: cell-based, Candida glabrata (ATCC 90030); details: Nakaseomyces glabratus
Procedure: as §1, §2

Candida albicans = experiment: Synergy with amphotericin B, inhibition of growth in 96-well plates; assay type: cell-based
Procedure: Briefly, in turning now to the illustrative experiments described in Example 11, varying amounts of amphotericin B were added to varying concentrations of an exemplary composition containing the antifungal lipopeptides of the present invention, extract EB-273, followed by a determination of the resulting inhibition of growth of Candida albicans.
Experiments were conducted with the semi-purified preparation of ecomycins (extract EB-273), added individually or in combination with sub-fungicidaldoses of Amphotericin B, to 96-well plates inoculated with C. albicans.

[2] = cited from earlier work
[3] = tested on: Cryptococcus neoformans 90013; experiment: Minimal inhibitory concentration test (modified NCCLS protocol); assay type: cell-based, Cryptococcus neoformans (ATCC 90013)
Procedure: as §1, §2

[4] = Thomas, 1986; cited from earlier work
Candida kefir 46764 = experiment: Minimal inhibitory concentration test (modified NCCLS protocol); assay type: cell-based, Candida kefir (ATCC 46764)
Procedure: as §1, §2

[5] = tested on: Cryptococcus neoformans 90012; experiment: as above; assay type: cell-based, Cryptococcus neoformans (ATCC 90012)
Procedure: as §1, §2

Candida albicans 90029 = experiment: as above; assay type: cell-based, Candida albicans (ATCC 90029)
Procedure: as §1, §2

C[C@@H]1[C@H](O)[C@@H](C)/C=C/C=C/C=C/C=C/C=C/C=C/C=C/[C@H](O[C@@H]2O[C@H](C)[C@@H](O)[C@H](N)[C@@H]2O)C[C@@H]2O[C@](O)(C[C@@H](O)C[C@@H](O)[C@H](O)CC[C@@H](O)C[C@@H](O)CC(=O)O[C@H]1C)C[C@H](O)[C@H]2C(=O)O [Amphotericin B]
MIC [1]: 0.1 µg/mL (≈ 0.108 µM) | MIC (Candida albicans 90028): 0.6 µg/mL (≈ 0.649 µM) | MIC (Candida glabrata 90030): 0.6 µg/mL (≈ 0.649 µM) | inhibition at 0.035 µg/mL (Candida albicans; Candida albicans, read-out: inhibitory effect): ~30% | inhibition at 0.07 µg/mL (Candida albicans; Candida albicans, amphotericin B alone, 70 ng/ml, read-out: inhibitory effect): ~25% | inhibition at 0.105 µg/mL (Candida albicans; Candida albicans, amphotericin B alone, 105 ng/ml, read-out: inhibitory effect): ~43% | inhibition at 0.14 µg/mL (Candida albicans; Candida albicans, amphotericin B alone, 140 ng/ml, read-out: inhibitory effect): ~55% | inhibition at 0.175 µg/mL (Candida albicans; Candida albicans, amphotericin B alone, 175 ng/ml, read-out: inhibitory effect): ~84% | enhancement of inhibitory effect (Candida albicans; amphotericin B 70 ng/ml + extract EB-273 about 8-12 μg/ml or greater vs. amphotericin B alone): nearly four-fold | inhibitory effect (Candida albicans; amphotericin B 70 ng/ml + extract EB-273 at about 8-12 μg/ml or greater): ~100% | enhancement of activity (Candida albicans; amphotericin B 105 ng/ml + extract EB-273 vs. amphotericin B alone): approximate two-fold enhancement | enhancement of activity (Candida albicans; amphotericin B 140 ng/ml + extract EB-273 vs. amphotericin B alone): approximate two-fold enhancement | interaction between amphotericin B and ecomycin extract (isobolographic analyses) (Candida albicans; amphotericin B + ecomycin extract EB-273, range of dosage responses): synergistic rather than additive | inhibition of C. albicans (Candida albicans; amphotericin B alone, 210 ng/ml): nearly complete inhibition | reduction of amount of amphotericin B required to effectively suppress growth of Candida (Candida albicans; in combination with the lipopeptides composition): at least 30% | reduction of amphotericin B concentration required for substantially complete inhibition (Candida albicans; with EB-273, [210 ng/ml-175 ng/ml]/210×100): 16% | reduction of amphotericin B concentration required for substantially complete inhibition (Candida albicans; with a suitable concentration of EB-273, fourth of four): 66% | reduction of amphotericin B concentration required for substantially complete inhibition (Candida albicans; with a suitable concentration of EB-273, second of four): 33% | reduction of amphotericin B concentration required for substantially complete inhibition (Candida albicans; with a suitable concentration of EB-273, third of four): 50% | oral absorption [2]: not adsorbed orally | MIC [3]: 0.3 µg/mL (≈ 0.325 µM) | toxicity, undesirable side-effects [4]: leucopenia, thrombocytopenia, renal tubular acidosis, hypokalemia, hypomagnesemia, headaches, nausea, and anemia | MIC (Candida kefir 46764): 0.1 µg/mL (≈ 0.108 µM) | MIC [5]: 0.1 µg/mL (≈ 0.108 µM) | MIC (Candida albicans 90029): 0.6 µg/mL (≈ 0.649 µM)
